Our source for the TGI and GI50 values is PubChem BioAssay (NCI).

Among the test systems are DLD-1 colon; HCC-2998 colon; LXFL 529 NSCLC; M19-MEL melanoma; OVCAR-8 ovarian; SK-MEL-2 melanoma; SNB-75 CNS; SNB-78 CNS; HS 578T breast; MDA-MB-435; OVCAR-4 ovarian; T-47D breast.
Holding throughout (test): DTP human tumour cell line panel, 48 h

“And” between values parts separate entries of the source, which are not always exact repeats. Equal entries are not always repeated.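 Following 48 hours of exposure in 96-well plates, responses at five concentrations were used to interpolate endpoints linearly. Here, GI50 denotes the concentration required for 50% inhibition of growth. TGI: total growth inhibition.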

In the case of `CCOC(=O)C1=C(C(=O)OCC)C2c3ccccc3C=CN2C(C(=O)OCC)=C(SC)S1` (stereo unspecified), the TGI with DLD-1 colon, with HCC-2998 colon, with LXFL 529 NSCLC, with M19-MEL melanoma, with OVCAR-8 ovarian and with SK-MEL-2 melanoma was more than 100 µM in each case. Besides, the concentration for total growth inhibition (TGI) in the test on SNB-75 CNS and with SNB-78 CNS was more than 100 µM throughout.
In the case of `O=C1CCCCN1c1ccccc1C#C/C=C\C#Cc1ccccc1C(F)(F)F`, the GI50 in the test with HCC-2998 colon is 0.951 µM; in the test with HS 578T breast it was 3.75 µM; in the test with MDA-MB-435, 0.603 µM; in the test on OVCAR-4 ovarian, 3.6 µM; in the test on OVCAR-8 ovarian, 1.49 µM; in the test on SK-MEL-2 melanoma, 7.26 µM. The GI50 was 1.61 µM in the test on SNB-75 CNS and more than 50 µM in the test with T-47D breast. Further, the TGI in the test with HCC-2998 colon is 2.5 µM; in the test on HS 578T breast it was more than 50 µM; with MDA-MB-435, 1.8 µM; in the test with OVCAR-4 ovarian it was 19.1 µM; with OVCAR-8 ovarian, 5.64 µM; with SK-MEL-2 melanoma it was more than 50 µM. Besides, the TGI in the test on SNB-75 CNS is 11.4 µM; in the test on T-47D breast, more than 50 µM.
Regarding `Nc1ccc(C2=NNC(=O)Cc3cc4c(cc32)OCCO4)cc1Cl`, the GI50 was 3.73 µM in the test on HCC-2998 colon; 4.33 µM in the test with HS 578T breast; 0.886 µM in the test with MDA-MB-435; 35.3 µM with OVCAR-4 ovarian; 8.03 µM with OVCAR-8 ovarian; 2.81 µM with SK-MEL-2 melanoma. Also, the values for the GI50 in the test on SNB-75 CNS and in the test on T-47D breast were 2 µM and 5.42 µM, respectively. For the same compound, the concentration for total growth inhibition (TGI) in the test with HCC-2998 colon is more than 50 µM; in the test on HS 578T breast, 25 µM; in the test with MDA-MB-435, 4.18 µM; in the test with OVCAR-4 ovarian, more than 50 µM; in the test with OVCAR-8 ovarian, more than 50 µM; with SK-MEL-2 melanoma, 44.6 µM. In addition, the TGI with SNB-75 CNS is 27.9 µM; with T-47D breast it was more than 50 µM.
As to `Cc1nnc(NC(=O)c2nc(S(=O)(=O)Cc3ccc(F)cc3)ncc2Cl)s1`, the GI50 was 13.4 µM in the test on HCC-2998 colon; 12.7 µM in the test with HS 578T breast; 1.82 µM in the test with MDA-MB-435; 1.8 µM with OVCAR-4 ovarian; 2.72 µM in the test with OVCAR-8 ovarian; 3.19 µM in the test on SK-MEL-2 melanoma. In addition, the GI50 in the test with SNB-75 CNS was 3.25 µM; in the test on T-47D breast it was 2.45 µM. For the same compound, the total growth inhibition concentration (TGI) with HCC-2998 colon is 29.4 µM; with HS 578T breast, 50.8 µM; in the test with MDA-MB-435, 3.43 µM; with OVCAR-4 ovarian, 3.8 µM; in the test on OVCAR-8 ovarian, 7.77 µM; in the test on SK-MEL-2 melanoma, 9.72 µM. Besides, the results for the TGI with SNB-75 CNS and in the test with T-47D breast were 17.6 µM and 14.1 µM, respectively.
For `CCN1C(=O)N(c2ccccc2)C2NC(=S)N(/N=C/C=C/c3ccccc3OC)C21` (stereo unspecified), the GI50 with HCC-2998 colon was 0.111 µM; in the test on HS 578T breast, 0.0858 µM; with MDA-MB-435, 0.0356 µM; in the test on OVCAR-4 ovarian it was 0.263 µM; in the test with OVCAR-8 ovarian, 0.118 µM; in the test with SK-MEL-2 melanoma, 0.166 µM. Also, the 50% growth inhibitory concentration (GI50) in the test with SNB-75 CNS is 0.0383 µM; in the test on T-47D breast it was 4.12 µM. Further, the concentration for total growth inhibition (TGI) in the test on HCC-2998 colon is more than 100 µM; in the test on HS 578T breast, more than 100 µM; in the test on MDA-MB-435 it was 0.155 µM; in the test with OVCAR-4 ovarian it was more than 67 µM; in the test with OVCAR-8 ovarian, more than 84.3 µM; with SK-MEL-2 melanoma it was more than 76.2 µM. Further, the TGI was more than 41.4 µM with SNB-75 CNS and more than 100 µM in the test on T-47D breast.
Turning to `COc1cccc(C(=O)NC(c2ccc(C)cc2)c2cc(Cl)c3cccnc3c2O)c1` (stereo unspecified), the GI50 is 0.786 µM in the test with HCC-2998 colon; 0.362 µM with HS 578T breast; 0.56 µM with MDA-MB-435; 0.298 µM with OVCAR-4 ovarian; 0.476 µM with OVCAR-8 ovarian; 0.767 µM in the test with SK-MEL-2 melanoma. In addition, the GI50 in the test with SNB-75 CNS is 0.326 µM; in the test with T-47D breast it was 0.517 µM. Also, the TGI was determined as 15.1 µM in the test with HCC-2998 colon; 30.5 µM with HS 578T breast; 23.7 µM in the test with MDA-MB-435; 10.2 µM in the test on OVCAR-4 ovarian; 26.7 µM in the test on OVCAR-8 ovarian; 9.16 µM in the test with SK-MEL-2 melanoma. Besides, the values for the concentration for total growth inhibition (TGI) in the test with SNB-75 CNS and in the test on T-47D breast were 11.9 µM and 12.1 µM, respectively.
For `O=S(=O)(c1ccccc1)N1CCN(S(=O)(=O)c2ccccc2)c2ccccc21`, the TGI in the test with HCC-2998 colon, in the test on HS 578T breast, with MDA-MB-435, in the test on OVCAR-4 ovarian, with OVCAR-8 ovarian and in the test on SK-MEL-2 melanoma was more than 100 µM in each case. Also, the TGI in the test on SNB-75 CNS and in the test on T-47D breast was more than 100 µM throughout.
For `COc1ccc(CCN=C2NC(=O)/C(=C/c3ccc4ncccc4c3)S2)cc1`, the GI50 with HCC-2998 colon, in the test with HS 578T breast, in the test on MDA-MB-435, with OVCAR-4 ovarian, in the test on OVCAR-8 ovarian and in the test with SK-MEL-2 melanoma was more than 25 µM throughout. For the same compound, the GI50 in the test on SNB-75 CNS and in the test on T-47D breast was more than 25 µM in each case. The concentration for total growth inhibition (TGI) with HCC-2998 colon, in the test on HS 578T breast, with MDA-MB-435, in the test with OVCAR-4 ovarian, in the test on OVCAR-8 ovarian and in the test on SK-MEL-2 melanoma was more than 25 µM in each case. Also, the TGI in the test on SNB-75 CNS and with T-47D breast was more than 25 µM throughout.
With `CC1=C2C(=C[C@@](C)(CO)[C@@H]2O)C(=O)[C@](C)(O)C12CC2`, the TGI in the test with HCC-2998 colon was 0.0302 µM and 0.018 µM; in the test with HS 578T breast, 0.0428 µM; in the test on MDA-MB-435, 0.0312 µM; with OVCAR-4 ovarian it was 0.0267 µM; in the test on OVCAR-8 ovarian, 0.0311 µM; in the test on SK-MEL-2 melanoma it was 0.0297 µM. Further, the TGI in the test with SNB-75 CNS is 0.0296 µM and 0.0123 µM; in the test on T-47D breast it was 0.0545 µM.
Take `CCn1c(-c2nonc2N)nc2c(C#CC(C)(C)O)nc(OC[C@@H](N)c3ccccc3)cc21`: the GI50 in the test with HCC-2998 colon was 4.31 µM; with HS 578T breast, 4.56 µM; in the test with MDA-MB-435, 5.22 µM; in the test with OVCAR-4 ovarian it was 6.78 µM; in the test with OVCAR-8 ovarian it was 4.45 µM; with SK-MEL-2 melanoma, 5.83 µM. Further, the GI50 was 2.45 µM in the test on SNB-75 CNS and 3.8 µM in the test with T-47D breast. Further, the TGI in the test with HCC-2998 colon turned out to be 8.14 µM; in the test with HS 578T breast, 10.7 µM; with MDA-MB-435, 9.81 µM; with OVCAR-4 ovarian, 13.3 µM; in the test with OVCAR-8 ovarian, 8.83 µM; in the test with SK-MEL-2 melanoma it was 10.2 µM. Also, the concentration for total growth inhibition (TGI) was determined as 5.66 µM with SNB-75 CNS and 8.24 µM with T-47D breast.

The TGI is the concentration giving total growth inhibition. Low values mean greater sensitivity of the cells, high ones lower sensitivity of the cells. A word on the GI50: it is the concentration at which growth is held to half of that of the control.
